Assay [1] relates to Botrytis cinerea. The assay can be described thus: Grey mould lesion development on wound-inoculated tomato fruit in ozone-enriched air. Particulars: 50 ppb ozone, even for 2-8 h, 13° C., 95% RH. The format is in vivo. The text has this:
Fruit were wound-inoculated with a mycelial plug containing the pathogen^2 at day 0, transferred to charcoal-filtered air (CFA) or an ozone enriched CFA environment and then removed at intervals to 'clean air'. ^1 Monitored using duplicate photometric analysers calibrated to US-EPA standards ^2 plugs (2.5 mm diameter) were removed from the advancing margins of 3-day-old B. cinerea cultures (4-5-day-old in the case of A. alternaria) and inserted into a superficial wound made in the surface of the fruit (two wound-inoculations per fruit) FIG. 1. Experimental design: Fruit maintained in 'clean air' (CFA, →) or ozone (50 ppb or 200 ppb (→) and then inoculated (↓) with an agar plug containing the pathogen. Exposure to ozone performed in the dark at 13° C. and 95%. FIG. 2. Impacts of ozone-enrichment on the development of grey mould (Botrytis cinerea) on tomato (Lycopersicon esculentum […]) fruit wound-inoculated with a mycelial plug (Lycopersicon esculentum […]). Fruit were maintained in controlled environment chambers at 13° C. and 95% RH ventilated with charcoal-filtered 'clean' air (CFA, □) or CFA plus a trace level of ozone (50 ppb, ●). For experimental design see FIG. 1. Values represent mean (±SE) for 3-4 replicate fruit. Experiments repeated several times.

Assay [2] concerns Alternaria alternata. The assay can be described thus: Black spot development on wound-inoculated tomato fruit in ozone-enriched air. The format is in vivo. Particulars: 50 ppb ozone, even for 2-8 h. How it is done:
The development of black spot (Alternaria alternata) was suppressed by more than 50% in fruit maintained in an atmosphere containing a trace level of ozone (50 ppb)—even for a relatively short period of time (2-8 h). Fruit were inoculated with a mycelial plug containing the pathogen and the experiment was performed according to design B (FIG. 1).
FIG. 3. Impacts of ozone-enrichment on the development of black spot (Alternaria alternata) raised on tomato fruit (Lycopersicon esculentum L. cv. Mareta) wound-inoculated with an agar plug containing mycelia of the pathogen. Fruit were maintained in controlled environment chambers at 13° C. and 95% RFL Chambers were ventilated with ‘clean’ (chracoal-filtered) air (CFA, □) or CFA plus a trace level of ozone (50 ppb, ●). Values represent mean (±SE) for 3-4 replicate fruit.

Assay [3] has as its system Alternaria alternata. The assay can be described thus: Spore production and viability on wound-inoculated tomato fruit. The format is in vivo. Conditions: for Spore prod.: 50 ppb O3, tomato fruit, 13° C., 95% RH, after 9-12 d. How it is done: (§1) Fruit were wound-inoculated with a suspension containing c. 25×10^3 spores of Botrytis, Alternaria or Colletotrichum, then incubated in clean air or in an atmosphere containing a trace level of ozone (50 ppb) at 13° C., 95% RH. After 9-12 d, spores were washed from inoculated fruit, counts made on a haemocytometer and recovered spore aliquots inoculated onto agar. In vitro spore germination was monitored following 72 h incubation in ‘clean air’ or ‘clean air’ plus a trace level of ozone.

Assay [4] concerns Botrytis cinerea. The assay is described as above. The class given is in vivo. Particulars: for Spore germ.: 50 ppb O3, recovered spores on agar, 72 h incubation; for Spore prod.: 50 ppb O3, tomato fruit, 13° C., 95% RH, after 9-12 d. As for the experimental part:
as §1

In assay [5] the test system is Colletotrichum coccodes. The description is as above. The class given is in vivo. Particulars: for Spore germ.: 50 ppb O3, recovered spores on agar, 72 h incubation; for Spore prod.: 50 ppb O3, tomato fruit, 13° C., 95% RH, after 9-12 d. How it is done: as §1
The test system of assay [6] is Botrytis cinerea. The assay can be described thus: Spore production on wound-inoculated easi-peel citrus, grapes and plums. Particulars: 100 ppb ozone, 13° C., 95% RH, grapes, plums. The class given is in vivo. As for the experimental part: Fruit were wound-inoculated with spore suspensions of Botrytis cinerea, then incubated in either clean air or an atmosphere containing a trace level of ozone (100 ppb) at 13° C. and 95% RH.
FIG. 4. Impact of a trace level of ozone enrichment (solid bars) on the development of Botrytis cinerea (based on spore counts) on easi-peel citrus, grapes & plums Fruit were wound-inoculated with spore suspensions containing 10^3 (‘low’ inoculum concentration), 10^5 (‘medium’ inoculum concentration) or 10^7 (‘high’ inoculum concentration) Botrytis cinerea, then incubated in clean air or an atmosphere containing a trace level of ozone (100 ppb) at 13° C. and 95% RH, After 8-12 d, spores were washed from inoculated fruit, counts made on a haemocytometer and aliquots incubated on agar. Control fruit were maintained in ‘clean air’ (cross-hatch bars).
Plates 2a & 2b. Impact of a trace level of ozone enrichment on the development of Botrytis cinerea on easi-peel citrus and plums. Fruit were wound-inoculated with/in spore suspensions containing 10^3 (‘low’ inoculum concentration), 10^5 (‘medium’ inoculum concentration) or 10^7 (‘high’ inoculum concentration) Botrytis cinerea, then incubated in clean air or an atmosphere containing a trace level of ozone (100 ppb) at 13° C. and 95% RR Control fruit were maintained in ‘clean air’.

In assay [7] the test system is silver scurf (Helminthosporium solani). The assay can be described thus: Silver scurf development on stored potato tubers (spore counts, lesion area). The format is in vivo. Particulars: for Lesion development (%): potato tubers; for Spores/ml: potato tubers cv. Estima, 3.5° C. then 13° C. How it is done: Tubers […] were washed and selected for similar levels of silver scurf (Helminthosporium solani) infection. Prior to storage, tubers were sprayed with water in order to simulate a condensation event to promote the development of the disease. Tubers were then placed in chambers maintained at 3.5° C.±0.5° C., >95% RH) ventilated with either 'clean air' (charcoal-filtered air'; CFA) or 'clean air' plus a trace level of ozone (200 ppb). After four weeks, half the tubers were removed, then the temperature raised to 13±0.5° C. […] A spore count was calculated for each tuber (n=10) using a haemocytometer. Additionally, the initial and final surface area covered in silver scurf lesions was measured using a […] devices image analyser. Taking into account shrinkage of the potato over the storage period, the percentage of each tuber covered in silver scurf was calculated.

Assay [8] deals with targeted fungal pathogens. The assay can be described thus: Colony development of fungal pathogens in vitro. Conditions: ozone concentrations upto 5.0 ppm. The class given is cell-based. The text has this: This implies that the observed suppression of spoilage organisms by ozone results from molecular/biochemical changes in the treated produce per se—presumably through subtle shifts in the manner in which plant tissue responds to challenge by pathogens (see FIG. 7).

Assay [9] concerns Botrytis cinerea. The assay can be described thus: Vaccination: tomato fruit exposed to ozone before wound-inoculation with grey mould. The class given is in vivo. How it is done: Tomato fruit were incubated for varying periods in ‘clean’ air or an atmosphere enriched with a trace level of ozone (50 ppb), then wound-inoculated with a mycelial plug of grey mould (Botrytis cinerea). Two experimental designs were adopted for the investigation of ‘memory’ effects induced by ozone:
(§2) (a) Fruit were incubated in clean air prior to transfer to an atmosphere containing a trace level of ozone in such a manner that fruit were wound-inoculated with the pathogen at the same physiological age. For gene expression studies, RNA was extracted from fruit snap-frozen in liquid nitrogen 24 h after wounding/inoculation, immediately following exposure to ‘clean air’ or ozone, and after 1 or 2 weeks' storage in ‘clean air’
Or, (b) Fruit were incubated in clean air or ozone and wound-inoculated with Botrytis cincerea either (i) immediately following the period of exposure, (ii) following 1 weeks' incubation in ‘clean air’ or (iii) following 2 weeks' incubation in ‘clean air’
FIG. 5. Experimental designs to test whether exposure to a trace level of ozone vaccinates produce against subsequent infection. Tomato fruit were maintained in charcoal filtered air (CPA, →) or ozone (→) prior to wound-inoculation (↓) with grey mould (Botrytis cinerea). […] Lesion development was monitored during storage in clean air, over a 7-d incubation period. […]

The test system of assay [10] is Aco1, Aos, Chit3α, Chit9b, Glucac, Glucbs, Hpl. Put plainly: Gene expression (RT-PCR) in tomato fruit induced by wounding/pathogen. The class given is in vivo, Lycopersicon esculentum L. Conditions: 50 ppb ozone. How it is done: as §2
Shifts in gene expression patterns were therefore consistent with the observed effects of trace ozone-enrichment on the development of a variety of fungal pathogens.
FIG. 7. Ozone-induced suppression of gene expression (probed by RT-PCR) induced by wounding/pathogen. Aco1 (aminocyclopropancarboxylic acid oxidase) and Aos (allene-oxide synthase) govern the production of ethylene and jasmonate, respectively. These are key signalling molecules. Chit3a (chi3 type chitinase acidic), Chit9b (chi9-type chitinase basic), Glucac (β-1-3 glucanase acidic), Glucbs (β-1-3 glucanase basic), and Hpl hydroperoxide lyase) are all involved with defence against pathogens and other stresses. Gapdh was used as the control gene. Measurements made on tomato fruit (Lycopersicon esculentum L.) incubated throughout in controlled environment chambers maintained at 13° C. and 95% RH and ventilated with clean air or 50 ppb ozone. FIG. 7a, immediate; FIG. 7b, 1 week; FIG. 7c 2 weeks.

Where [11] appears, read: 200 ppb ozone weeks 1-4, NFA weeks 5-8.
Where [12] appears, read: 200 ppb ozone weeks 1-4 and weeks 5-8.

SMILES strings stand for the structures.

`O=[O+][O-]` [ozone]: in [1], the “Grey mould lesion development” value is given as “dramatically suppressed”. Further, in [2], the “Suppression of black spot development” value is listed as “more than 50%”. Further, the Spore germ. is recorded as 99.86 ± 0.137 in [3] (50 ppb O3, recovered spores on agar, 72 h incubation); “significantly reduced” in [4]; 96.76 ± 0.613 in [4] (listed as O3); “significantly reduced” in [5]; 52.50 ± 4.550 in assay [5] (listed as O3). In addition, the Spore prod. result is “dramatically reduced” in [3]; 5.83 ± 0.645 in assay [3] (listed as O3); “dramatically reduced” in assay [4]; 7.50 ± 1.510 in assay [4] (listed as O3); “dramatically reduced” in assay [5]; 2.44 ± 0.526 in [5] (listed as O3). For the same compound, in assay [6], the “Development of the pathogen (based on spore production)” value is on record as “dramatically reduced”. The “Lesion development (%)” value in assay [7] (setting [11]) worked out at 21.34 a %; in [7] (setting [12]), 12.81 b %. The figures for the Spores/ml in assay [7] (setting [11]) and in [7] (setting [12]) were 3.9 × 10^6 c Spores/ml and 1.7 × 10^6 b Spores/ml, respectively. Moreover, the “Direct effects on colony development in vitro” value in [8] is “No direct effects”. Also, the “Persistence of vaccination effect after removal from ozone” value in [9] (tomato fruit transferred to clean air) is recorded as “persisted for up to two weeks”. For the same compound, the “Pathogen development after prior exposure to ozone” value in assay [9] (trace level of ozone (50 ppb), even 2-8 h, before inoculation, tomato fruit) is on record as “marked suppression”. Further, the “Persistence of gene expression effects after transfer to clean air” value in assay [10] is recorded as “persisted for upto two weeks”. Also, the “Expression of signal-transduction and defence genes” value in assay [10] (13° C., 95% RH) is listed as “decline”.
